Test results taken from ChEMBL document CHEMBL4616726, “Optimization of the Linker Domain in a Dimeric Compound that Degrades an r(CUG) Repeat Expansion in Cells” (J Med Chem, 2020).
Active and inactive are the calls of the source. No cut-off for these calls is given here.

What was measured:
[1] = Drug uptake in human DM1-patient derived myotubes by fluorescence based assay; assay type: ADME; settings: in vitro
[2] = Drug localization in cytoplasm of human DM1-patient derived myotubes by live-cell fluorescence microscopy; assay type: ADME, subcellular
[3] = tested on: r(CUG) repeat expansion; test: Induction of 5'-biotinylated r(CUG)12 RNA repeat (unknown origin) degradation assessed as disruption of r(CUG)12-MBNL1 complex formation incubated for 15 mins by TR-FRET assay; assay type: nucleic-acid assay
[4] = tested on: r(CUG) repeat expansion; test: Induction of r(CUG)exp RNA repeat in human DM1-patient derived myotubes assessed as improvement in MBNL1 exon 5 splicing defect at 5 uM by RT-qPCR analysis relative to control; assay type: nucleic-acid assay
[5] = target: r(CUG) repeat expansion; test: Binding affinity to r(CUG)8 RNA repeat (unknown origin) by fluorescence based assay; assay type: nucleic-acid assay
[6] = tested on: r(CUG) repeat expansion; test: Induction of r(CUG)exp RNA repeat in human DM1-patient derived myotubes assessed as improvement in MBNL1 exon 5 splicing defect by RT-qPCR analysis; assay type: nucleic-acid assay
[7] = target: r(CUG) repeat expansion; test: Binding affinity to r(CUG)12 RNA repeat (unknown origin) by fluorescence based assay; assay type: nucleic-acid assay
[8] = tested on: r(CUG) repeat expansion; test: Induction of r(CUG)exp RNA repeat in human DM1-patient derived myotubes assessed as reduction in number of foci containing r(CUG)exp-MBNL1 foci at 5 uM by immunofluorescence assay; assay type: nucleic-acid assay
[9] = Drug localization in nucleus of human DM1-patient derived myotubes by live-cell fluorescence microscopy; assay type: ADME, subcellular
[10] = tested on: r(CUG) repeat expansion; test: Induction of r(CUG)exp RNA repeat in human DM1-patient derived myotubes assessed as reduction in number of foci containing r(CUG)exp-MBNL1 foci at 5 uM by RNA fluorescence in situ hybridization assay; assay type: nucleic-acid assay
[11] = tested on: r(CUG) repeat expansion; test: Induction of DMPK mRNA 3'-UTR r(CUG)1300 repeat degradation in human DM1 patient-derived myotubes at 5 uM by RT-qPCR analysis relative to control; assay type: nucleic-acid assay

Structure (SMILES)	Drug uptake [1]	Drug uptake [2]	Activity [3]	Activity [4]	also measured
CN1CCN(c2ccc3[nH]c(-c4ccc5[nH]c(-c6cccc(OCCCC(=O)N(C)CCCCN(CC(N)=O)C(=O)[C@@H]7C[C@@H](O)CN7C(=O)[C@@H]7C[C@@H](O)CN7C(=O)[C@@H]7C[C@@H](O)CN7C(=O)[C@@H]7C[C@@H](O)CN7C(=O)CCCOc7cccc(-c8nc9ccc(-c%10nc%11ccc(N%12CCN(C)CC%12)cc%11[nH]%10)cc9[nH]8)c7)c6)nc5c4)nc3c2)CC1	Active	Active	Active	inactive	–
CN1CCN(c2ccc3[nH]c(-c4ccc5[nH]c(-c6cccc(OCCCC(=O)N(C)CCCCN(CC(N)=O)C(=O)[C@@H]7CCCN7C(=O)[C@@H]7CCCN7C(=O)[C@@H]7CCCN7C(=O)[C@@H]7CCCN7C(=O)CCCOc7cccc(-c8nc9ccc(-c%10nc%11ccc(N%12CCN(C)CC%12)cc%11[nH]%10)cc9[nH]8)c7)c6)nc5c4)nc3c2)CC1	–	–	Active	–	–
CN1CCN(c2ccc3[nH]c(-c4ccc5[nH]c(-c6cccc(OCCCC(=O)N(C)CCCCN(CC(N)=O)C(=O)[C@@H]7CCCN7C(=O)[C@@H]7CCCN7C(=O)CCCOc7cccc(-c8nc9ccc(-c%10nc%11ccc(N%12CCN(C)CC%12)cc%11[nH]%10)cc9[nH]8)c7)c6)nc5c4)nc3c2)CC1	Active	Active	–	30%	EC50 [5]: > 10 µM; Activity [6]: Dose-dependent effect; EC50 [7]: 0.15 µM; Activity [8]: Active; IC50 [3]: 5.3 µM; Drug uptake [9]: Active; Activity [10]: Active
CN1CCN(c2ccc3[nH]c(-c4ccc5[nH]c(-c6cccc(OCCCC(=O)N(C)CCCCN(CC(N)=O)C(=O)[C@@H]7CCCN7C(=O)[C@@H]7CCCN7C(=O)[C@@H]7CCCN7C(=O)CCCOc7cccc(-c8nc9cc(-c%10nc%11cc(N%12CCN(C)CC%12)ccc%11[nH]%10)ccc9[nH]8)c7)c6)nc5c4)nc3c2)CC1	–	–	Active	–	–
CC(=O)O[C@H]1[C@H](O)[C@H](O[C@@H]2[C@H](O[C@H](c3cnc[nH]3)[C@@H](NC(=O)c3nc([C@@H](CC(N)=O)NC[C@@H](N)C(N)=O)nc(N)c3C)C(=O)N[C@@H](C)[C@H](O)[C@@H](C)C(=O)N[C@H](C(=O)NCCc3nc(-c4nc(C(=O)NCCCNCCCCNC(=O)CCCCCCC(=O)N(CCN(C)C(=O)CCCOc5cccc(-c6nc7ccc(-c8nc9ccc(N%10CCN(C)CC%10)cc9[nH]8)cc7[nH]6)c5)CC(=O)N(C)[C@@H](C)C(=O)N(C)[C@@H](C)C(=O)N(C)[C@@H](C)C(=O)N(CCCCN(C)C(=O)CCCOc5cccc(-c6nc7ccc(-c8nc9ccc(N%10CCN(C)CC%10)cc9[nH]8)cc7[nH]6)c5)CC(N)=O)cs4)cs3)[C@H](C)O)O[C@@H](CO)[C@H](O)[C@H]2O)O[C@@H](CO)[C@@H]1O	–	–	–	–	Activity [11]: 30%
CN1CCN(c2ccc3[nH]c(-c4ccc5[nH]c(-c6cccc(OCCCC(=O)N(C)CCCCN(CC(N)=O)C(=O)[C@@H]7CCCN7C(=O)[C@@H]7CCCN7C(=O)[C@@H]7CCCN7C(=O)[C@@H]7CCCN7C(=O)[C@@H]7CCCN7C(=O)CCCOc7cccc(-c8nc9cc(-c%10nc%11cc(N%12CCN(C)CC%12)ccc%11[nH]%10)ccc9[nH]8)c7)c6)nc5c4)nc3c2)CC1	–	–	Active	–	–
